Results as given in EPA's ToxValDB 9.5 (doi:10.2903/j.efsa.2006.66r).

Key:
Canidae = conditions: subchronic; duration: 90 days; oral; Dog Other; neurology
Colinus virginianus = conditions: reproduction developmental; duration: 21 weeks; oral; diet; reproduction
Daphnia magna = conditions: chronic/long-term; duration: 21 days; reproduction
Oncorhynchus mykiss = conditions: chronic/long-term; duration: 21 days; mortality
Poecilus cupreus = conditions: not reported; mortality
Rattus norvegicus = conditions: for NOAEL: neurology
Tagia sp. = conditions: chronic/long-term; duration: 56 days

CCCSP(=O)(OCC)SCCC [Ethoprop]
NOAEL (Canidae): 0.1 mg/kg-day | NOEC (Colinus virginianus): < 0.6 mg/kg-day | NOEC (Daphnia magna): 0.002 mg/L | NOEC (Oncorhynchus mykiss): 0.064 mg/L | LEL (Poecilus cupreus): 7000 g/ha | NOAEL (Rattus norvegicus; acute, oral): 1 mg/kg-day | NOAEL (Rattus norvegicus; chronic, duration: 2 years): 0.04 mg/kg-day | NOEL (Rattus norvegicus; reproduction developmental, reproduction): 1.3 mg/kg-day | NOAEL (Rattus norvegicus; short-term, duration: 28 days, oral): 0.1 mg/kg-day | NOEC (Tagia sp.): < 1.67 mg/kg
